Assay results published in patent US6355624B1, “Measurement of plasma volume” (University Wales College of Medicine, priority 1997, dated 2002).
Where “and” joins values, the source holds several entries; their conditions need not be identical. Equal entries are not always repeated.

What was measured:
[1] = Volume of distribution of FITC-Elohaes compared with Evans Blue labelled albumin in healthy and endotoxic newborn piglets; details: approx 1.0 mg/kg, individual piglets and mean; for Vd: pig, in vivo, iv, 1 mg/kg
Method: Seventeen piglets were used in this study. The animals were randomised into two groups, a healthy (control) group and an Escherichia coli (endotoxic) group. The animals of the endotoxic group received a bolus injection of E. coli (1.667 μg/kg), followed by a continuous infusion of E. coli (1.667 μg/kg/hr) throughout the experiment. The control group received the same dose of isotonic saline injection and infusion. Approximately 30 minutes thereafter, a sample of blood (0.6 ml) was obtained from the femoral vein catheter prior to injection of the plasma marker. A volume between 0.5 ml and 1.0 ml of the indicator was injected {of approximately 1.0 mg/kg for both plasma markers} via the femoral vein catheter into the bloodstream. The catheter was then flushed clean with an equal volume of isotonic saline. […] As before, following the withdrawal of each sample, the catheter was flushed with an equal volume of isotonic saline. Samples were obtained at various time intervals over a 6 hour period, the majority were collected within the first hour after administration of the plasma marker. Blood samples were then centrifuged at approximately 2500 r.p.m for 10-15 minutes and plasma/serum withdrawn.

[2] = Volume of distribution (plasma volume) of FITC-Elohaes compared to Evans Blue labelled albumin in healthy rabbits; details: both, rabbit, in vivo, 0.2 mg/ml
Method: All rabbits used were adults of either sex, weighing approximately 3 kg. Both ears of the rabbit were first anaesthetised by topical application of Elma cream about 30 minutes prior to commencement of the procedure. A small cut was made into the left ear vein, using a scalpel, to enable relatively simple blood sampling. A sample of blood (approximately 1.0 ml) was obtained from the cut ear vein and collected into tubes coated with anti-coagulant (EDTA). […] A mixing time of at least 5 minutes was allowed before blood sampling began. Blood samples (≈1.0 ml) were then withdrawn at various time intervals following injection, up to a maximum of 2 days. Most samples were collected within the first 3 hours and no more than 9 post-injection blood samples were taken from each rabbit. The blood samples were then centrifuged {Centaur 2} at 2300 r.p.m. for 10-15 minutes and the plasma withdrawn.
The minimisation procedure was obtained from the NAG library {Numerical Algorithms Group, Oxford; Routine E04FCF:NAGFLIB:1652/0: Mk7: December 1978}. This routine was called by a programme, written by the user and incorporated a subroutine with the appropriate mathematical equation. […]
Thus, the volume of distribution was calculated from the degree of dilution (El-Sayed et al., 1995).

[3] = endotoxic (E. coli) newborn piglets

SMILES: Cc1cc(-c2ccc(/N=N/c3ccc4c(S(=O)(=O)O)cc(S(=O)(=O)O)c(N)c4c3O)c(C)c2)ccc1/N=N/c1ccc2c(S(=O)(=O)O)cc(S(=O)(=O)O)c(N)c2c1O [Evans Blue]
- VD [1, 3]: 0.1401 L/kg and 0.0917 L/kg and 0.1138 L/kg and 0.1129 L/kg and 0.0783 L/kg
- VD ([1]; healthy newborn piglets): 0.0851 L/kg and 0.0862 L/kg and 0.0835 L/kg and 0.0869 L/kg
- Vd [1, 3]: 0.0983 L/kg
- Vd ([1]; healthy newborn piglets): 0.0896 L/kg
- Vd [2]: 0.0531 L/kg
